Each molecule was assayed against human PDE10A (Homo sapiens (Human), UniProt Q9Y233) (assay: human PDE10A full length Scintillation Proximity Assay (SPA)). Details: PDE10A full length enzyme, 50 nM cGMP / [3H]-cGMP substrate, 20 minutes at room temperature.
Type: biochemical
Procedure, shortened: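 Full-length human PDE10A with 50 nM cGMP plus 50 nM [3H]-cGMP in 20 mM HEPES pH 7.5, 10 mM MgCl2, 0.05 mg/ml BSA; 20 min at room temperature. Stopped with yttrium silicate SPA beads in zinc sulphate, scintillation counted; IC50 from concentration range.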

human PDE10A, sequence (Q9Y233 other isoform, or with tags, fused parts or gaps): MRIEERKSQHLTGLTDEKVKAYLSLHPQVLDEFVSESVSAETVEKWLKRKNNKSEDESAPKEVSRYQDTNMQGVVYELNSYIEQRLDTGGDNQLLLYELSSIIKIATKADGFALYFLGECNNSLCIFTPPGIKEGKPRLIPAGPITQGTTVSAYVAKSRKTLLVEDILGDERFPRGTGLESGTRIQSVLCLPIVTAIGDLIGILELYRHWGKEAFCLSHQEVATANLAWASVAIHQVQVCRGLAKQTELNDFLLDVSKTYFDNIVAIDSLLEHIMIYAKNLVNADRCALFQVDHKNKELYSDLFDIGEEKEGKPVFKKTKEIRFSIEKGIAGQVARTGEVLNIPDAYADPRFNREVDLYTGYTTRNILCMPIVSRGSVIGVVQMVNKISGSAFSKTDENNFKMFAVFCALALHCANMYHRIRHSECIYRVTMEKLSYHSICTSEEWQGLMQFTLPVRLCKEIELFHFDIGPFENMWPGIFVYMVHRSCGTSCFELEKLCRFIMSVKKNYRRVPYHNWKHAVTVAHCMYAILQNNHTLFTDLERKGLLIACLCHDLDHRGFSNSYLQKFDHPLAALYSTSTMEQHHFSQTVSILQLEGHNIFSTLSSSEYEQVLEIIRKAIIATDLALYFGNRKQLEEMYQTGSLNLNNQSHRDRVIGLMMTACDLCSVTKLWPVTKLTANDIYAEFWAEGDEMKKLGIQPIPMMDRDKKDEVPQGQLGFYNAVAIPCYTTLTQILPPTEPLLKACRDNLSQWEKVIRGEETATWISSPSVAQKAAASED

IC50 [nM] | Compound
288 | Cc1ncc(C)n2nc(CCc3nc(N4CCCC4=O)nn3C)nc12 [Example 87, 1-{5-[2-(5,8-Dimethyl-[1,2,4]triazolo[1,5-a]pyrazin-2-yl)-ethyl]-1-methyl-1H-[1,2,4]triazol-3-yl}-pyrrolidin-2-one]
9.78 | Cc1c(Cl)cc(C(F)(F)F)c2nc(CCc3nc(N4CCC(F)(F)C4)nn3C)nn12 [Example 88, 6-Chloro-2-{2-[5-(3,3-difluoro-pyrrolidin-1-yl)-2-methyl-2H-[1,2,4]triazol-3-yl]-ethyl}-5-methyl-8-trifluoromethyl-[1,2,4]triazolo[1,5-c]pyridine]
108 | Cc1ncc(C)n2nc(CCc3nc(N4CC(C)C4)nn3C)nc12 [Example 89, 5,8-Dimethyl-2-{2-[2-methyl-5-(3-methyl-azetidin-1-yl)-2H-[1,2,4]triazol-3-yl]-ethyl}-[1,2,4]triazolo[1,5-a]pyrazine]
475 | Cc1ncc(C)n2nc(CCc3nc(N4CC(F)(F)C4)nn3C)nc12 [Example 90, 2-{2-[5-(3,3-Difluoro-azetidin-1-yl)-2-methyl-2H-[1,2,4]triazol-3-yl]-ethyl}-5,8-dimethyl-[1,2,4]triazolo[1,5-a]pyrazine]
0.88 | Cc1c(Cl)cc(C(F)(F)F)c2nc(C#Cc3nc(N4CCCC4)nn3C)nn12 [Example 91, 6-Chloro-5-methyl-2-(2-methyl-5-pyrrolidin-1-yl-2H-[1,2,4]triazol-3-ylethynyl)-8-trifluoromethyl-[1,2,4]triazolo[1,5-a]pyridine]
13.9 | Cc1ncc(C)n2nc(CCc3nc(N4CCC5(CC5)C4)nn3C)nc12 [Example 92, 2-{2-[5-(5-Aza-spiro[2.4]hept-5-yl)-2-methyl-2H-[1,2,4]triazol-3-yl]-ethyl}-5,8-dimethyl-[1,2,4]triazolo[1,5-a]pyrazine]
166 | Cc1ncc(C)n2nc(CCc3nc(N4CCC(F)(F)C4)nn3C)nc12 [Example 93, 2-{2-[5-(3,3-Difluoro-pyrrolidin-1-yl)-2-methyl-2H-[1,2,4]triazol-3-yl]-ethyl}-5,8-dimethyl-[1,2,4]triazolo[1,5-a]pyrazine]
122 | Cc1ncc(C)n2nc(CCc3nc(N4CC[C@H](F)C4)nn3C)nc12 [Example 94, 2-{2-[5-((S)-3-Fluoro-pyrrolidin-1-yl)-2-methyl-2H-[1,2,4]triazol-3-yl]-ethyl}-5,8-dimethyl-[1,2,4]triazolo[1,5-a]pyrazin]
0.23 | Cc1c(Cl)cc(OC(F)F)c2nc(CCc3nc(N4CCCC4)nn3C)nn12 [Example 95, 6-Chloro-8-difluoromethoxy-5-methyl-2-[2-(2-methyl-5-pyrrolidin-1-yl-2H-[1,2,4]triazol-3-yl)-ethyl]-[1,2,4]triazolo[1,5-c]pyridine]
10.7 | Cc1ncc(C)n2nc(CCc3nc(N4CC[C@@H](F)C4)nn3C)nc12 [Example 96, 2-{2-[5-((R)-3-Fluoro-pyrrolidin-1-yl)-2-methyl-2H-[1,2,4]triazol-3-yl]-ethyl}-5,8-dimethyl-[1,2,4]triazolo[1,5-a]pyrazine]
79.3 | Cc1ncc(C)n2nc(/C=C/c3nc(N(C)CC4CC4)nn3C)nc12 [Example 97, Cyclopropylmethyl-{5-[(E)-2-(5,8-dimethyl-[1,2,4]triazolo[1,5-a]pyrazin-2-yl)-vinyl]-1-methyl-1H-[1,2,4]triazol-3-yl}-methyl-amine]
0.51 | Cc1c(Cl)cc(OCC(F)(F)F)c2nc(CCc3nc(N4CCCC4)nn3C)nn12 [Example 98, 6-Chloro-5-methyl-2-[2-(2-methyl-5-pyrrolidin-1-yl-2H-[1,2,4]triazol-3-yl)-ethyl]-8-(2,2,2-trifluoro-ethoxy)-[1,2,4]triazolo[1,5-c]pyridine]
273 | Cc1ncc(C)n2nc(CCc3nc(N4CC5CCC5C4)nn3C)nc12 (stereo not drawn) [Example 99, 2-{2-[5-(3-Aza-bicyclo[3.2.0]hept-3-yl)-2-methyl-2H-[1,2,4]triazol-3-yl]-ethyl}-5,8-dimethyl-[1,2,4]triazolo[1,5-a]pyrazine]
5.5 | Cc1ncc(C)n2nc(CCc3nc(N4CCC[C@@H]4C)nn3C)nc12 [Example 100, 5,8-Dimethyl-2-{2-[2-methyl-5-((S)-2-methyl-pyrrolidin-1-yl)-2H-[1,2,4]triazol-3-yl]-ethyl}-[1,2,4]triazolo[1,5-a]pyrazine]
57.6 | Cc1ncc(C)n2nc(CCc3nc(N4CCC[C@H]4C)nn3C)nc12 [Example 101, 5,8-Dimethyl-2-{2-[2-methyl-5-((R)-2-methyl-pyrrolidin-1-yl)-2H-[1,2,4]triazol-3-yl]-ethyl}-[1,2,4]triazolo[1,5-a]pyrazine]
179 | Cc1ncc(C)n2nc(/C=C/c3nc(N4CCCCCC4)nn3C)nc12 [Example 102, 2-[(E)-2-(5-Azepan-1-yl-2-methyl-2H-[1,2,4]triazol-3-yl)-vinyl]-5,8-dimethyl-[1,2,4]triazolo[1,5-a]pyrazine]
10.2 | Cc1nc(C(F)(F)F)n2nc(CCc3nc(N4CCCC4)nn3C)nc2c1C [Example 103, 7,8-Dimethyl-2-(2-(1-methyl-3-(pyrrolidin-1-yl)-1H-1,2,4-triazol-5-yl)ethyl)-5-(trifluoromethyl)-[1,2,4]triazolo[1,5-c]pyrimidine]

IC50 [nM] | Compound
131 | Cc1ncc(C)n2nc(CCc3nc(N4CCC(O)C4)nn3C)nc12 (stereo not drawn) [Example 104, 1-{5-[2-(5,8-Dimethyl-[1,2,4]triazolo[1,5-a]pyrazin-2-yl)-ethyl]-1-methyl-1H-[1,2,4]triazol-3-yl}-pyrrolidin-3-ol]
0.44 | Cc1c(Cl)cc(C(F)(F)F)c2nc(CCc3nc(N4CCCC4)n(C)n3)nn12 [Example 105, 6-Chloro-5-methyl-2-[2-(1-methyl-5-pyrrolidin-1-yl-1H-[1,2,4]triazol-3-yl)-ethyl]-8-trifluoromethyl-[1,2,4]triazolo[1,5-c]pyridine]
0.55 | Cc1c(Cl)cc(OC(F)F)c2nc(CCc3nc(N4CCCC4)n(C)n3)nn12 [Example 106, 6-Chloro-8-difluoromethoxy-5-methyl-2-[2-(1-methyl-5-pyrrolidin-1-yl-1H-[1,2,4]triazol-3-yl)-ethyl]-[1,2,4]triazolo[1,5-c]pyridine]
171 | Cc1ncc(C)n2nc(CCc3nc(N4CC[C@@H](NC(=O)OC(C)(C)C)C4)nn3C)nc12 [Example 107, ((R)-1-{5-[2-(5,8-Dimethyl-[1,2,4]triazolo[1,5-a]pyrazin-2-yl)-ethyl]-1-methyl-1H-[1,2,4]triazol-3-yl}-pyrrolidin-3-yl)-carbamic acid tert-butyl ester]
0.8 | Cc1ncc(C)n2nc(C#Cc3nc(N4CCCC4)nn3C)nc12 [Example 108, 5,8-Dimethyl-2-(2-methyl-5-pyrrolidin-1-yl-2H-[1,2,4]triazol-3-ylethynyl)-[1,2,4]triazolo[1,5-a]pyrazine]
0.29 | Cc1ncc(C)n2nc(CCc3nc(N4CCCC4)nn3-c3ccccc3)nc12 [Example 109, 5,8-Dimethyl-2-[2-(2-phenyl-5-pyrrolidin-1-yl-2H-[1,2,4]triazol-3-yl)-ethyl]-[1,2,4]triazolo[1,5-a]pyrazine]
3.25 | Cc1ncc(C)n2nc(CCc3nc(N4CCCC4)nn3CC(F)F)nc12 [Example 110, 2-{2-[2-(2,2-Difluoro-ethyl)-5-pyrrolidin-1-yl-2H-[1,2,4]triazol-3-yl]-ethyl}-5,8-dimethyl-[1,2,4]triazolo[1,5-a]pyrazine]
18.4 | Cc1cnc(C)n2nc(CCc3nc(N4CCCC4C)nn3C)nc12 (stereo not drawn) [Example 111, 5,8-Dimethyl-2-{2-[2-methyl-5-(2-methyl-pyrrolidin-1-yl)-2H-[1,2,4]triazol-3-yl]-ethyl}-[1,2,4]triazolo[1,5-c]pyrimidine]
9 | Cc1cnc(C)n2nc(CCc3nc(N4CCC[C@@H]4C)nn3C)nc12 [Example 112, 5,8-Dimethyl-2-{2-[2-methyl-5-((S)-2-methyl-pyrrolidin-1-yl)-2H-[1,2,4]triazol-3-yl]-ethyl}-[1,2,4]triazolo[1,5-c]pyrimidine]
131 | Cc1cnc(C)n2nc(CCc3nc(N4CCC[C@H]4C)nn3C)nc12 [Example 113, 5,8-Dimethyl-2-{2-[2-methyl-5-((R)-2-methyl-pyrrolidin-1-yl)-2H-[1,2,4]triazol-3-yl]-ethyl}-[1,2,4]triazolo[1,5-c]pyrimidine]
34.2 | Cc1ncc(C)n2nc(CCc3nc(N4CCC[C@@H]4C(F)(F)F)nn3C)nc12 [Example 114, 5,8-Dimethyl-2-{2-[2-methyl-5-((R)-2-trifluoromethyl-pyrrolidin-1-yl)-2H-[1,2,4]triazol-3-yl]-ethyl}-[1,2,4]triazolo[1,5-a]pyrazine]
5.46 | Cc1ncc(C)n2nc(CCc3nc(N4CC[C@H](C)C4)nn3C)nc12 [Example 115, 5,8-Dimethyl-2-{2-[2-methyl-5-((S)-3-methyl-pyrrolidin-1-yl)-2H-[1,2,4]triazol-3-yl]-ethyl}-[1,2,4]triazolo[1,5-a]pyrazine]
8.94 | Cc1ncc(C)n2nc(CCc3nc(N4CC[C@@H](C)C4)nn3C)nc12 [Example 116, 5,8-Dimethyl-2-{2-[2-methyl-5-((R)-3-methyl-pyrrolidin-1-yl)-2H-[1,2,4]triazol-3-yl]-ethyl}-[1,2,4]triazolo[1,5-a]pyrazine]
1.32 | Cc1ncc(C)n2nc(CCc3nc(N4CCCC4)nn3CC3CC3)nc12 [Example 117a, 2-[2-(2-Cyclopropylmethyl-5-pyrrolidin-1-yl-2H-[1,2,4]triazol-3-yl)-ethyl]-5,8-dimethyl-[1,2,4]triazolo[1,5-a]pyrazine]
6.69 | Cc1ncc(C)n2nc(CCc3nc(N4CCCC4)n(CC4CC4)n3)nc12 [Example 117b, 2-[2-(1-Cyclopropylmethyl-5-pyrrolidin-1-yl-1H-[1,2,4]triazol-3-yl)-ethyl]-5,8-dimethyl-[1,2,4]triazolo[1,5-a]pyrazine]
27.4 | Cc1cnc(C)n2nc(CCc3nc(N4CCC[C@@H]4C(F)(F)F)nn3C)nc12 [Example 118, 5,8-Dimethyl-2-{2-[2-methyl-5-((R)-2-trifluoromethyl-pyrrolidin-1-yl)-2H-[1,2,4]triazol-3-yl]-ethyl}-[1,2,4]triazolo[1,5-c]pyrimidine]

— patent publication US9394311B2, “Triazolo compounds as PDE10 inhibitors” (Hoffmann-La Roche Inc., priority 2012, dated 2016)
